# Experimental data: patent publication US20190203240A1, “METHODS FOR THE PRODUCTION OF RHAMNOSYLATED FLAVONOIDS” (Universitaet Hamburg, priority 2016, published 2019)
# “And” between values parts separate entries of the source, which are not always exact repeats. Equal entries are not always repeated.
# Key:
# HaCaT cells = test: Glucose uptake (2-NBDG) in HaCaT keratinocytes; format: cell-based; details: +2NBDG 50 μM, 24 h
# Procedure: HaCaT cells (5×10^4) were seeded in 96-well black plates and incubated for 24 h. Then, medium was removed and the cells cultivated in OptiMEM, labeled with 50 μM 2-NBDG (2-[N-(7-nitrobenz-2-oxa-1,3-diazol-4-yl) amino]-2-deoxy-D-glucose and treated with the test substances or the positive control, Rosiglitazone, for 24 h. Medium was removed and the wells were carefully washed with PBS and incubated in PBS (100 μl/well). Finally the fluorescence was measured using the Incucyte FLR software, the data were analyzed by the total green object integrated intensity (GCU×μm2×Well) of the imaging system IncuCyte HD (Essen BioScience). The fluorescence of Rosiglitazone is taken as 100% of glucose uptake, and the glucose uptake was calculated as (% Glucose uptake)=100(T−B)/(R−B), where T (treated) is the fluorescence of test substance-treated cells, B (Basal) is the fluorescence of 2-NBDG cells and […] is the fluorescence of cells treated with Rosiglitazone.
# VEGF = test: Stimulation of VEGF release in NHDF (ELISA); format: cell-based, human; details: 72 hours, 100 μM
# Procedure: Tests were performed with normal human dermal fibroblast cultures at the 8th passage. Cells were grown in DMEM supplemented with glutamine at 2 mM, penicillin at 50 U/mL and streptomycin (50 μg/mL) and 10% of fetal calf serum (FCS) at 37° C. in a 5% CO2 atmosphere.
# Fibroblasts were cultured for 24 hours before the cells were incubated with the test compounds for further 72 hours. After the incubation the culture supernatants were collected in order to measure the released quantities of procollagen I, VEGF, and fibronectin by means of ELISA. Reference test compounds were vitamin C (procollagen I), PMA (VEGF), and TGF-β (fibronectin).
# NF-κB = NF-κB activity in NIH3T3-KBF-Luc cells stimulated with TNFα (luciferase); format: cell-based; details: +30 ng/ml TNFα
# Procedure: NIH3T3-KBF-Luc cells were stably transfected with the KBF-Luc plasmid (Sancho (2003) Mol Pharmacol 63:429-438), which contains three copies of NF-κB binding site (from major histocompatibility complex promoter), fused to a minimal simian virus 40 promoter driving the luciferase gene. Cells (1×10^4 for NIH3T3-KBF-Luc) were seeded the day before the assay on 96-well plate. Then the cells were treated with the test substances for 15 min and then stimulated with 30 ng/ml of TNFα. After 6 h, the cells were washed twice with PBS and lysed in 50 μl lysis buffer containing 25 mM Tris-phosphate (pH 7.8), 8 mM MgCl2, 1 mM DTT, 1% Triton X-100, and 7% glycerol during 15 min at RT in a horizontal shaker. Luciferase activity was measured using a GloMax 96 microplate luminometer (Promega) following the instructions of the luciferase assay kit (Promega, Madison, Wis., USA). […] The experiments for each concentration of the test items were done in triplicate wells.
# TNF-α = test: Anti-inflammatory potential: secreted TNF-α in stimulated NHEK (ELISA); format: cell-based, human; details: poly(I:C) stimulation, 100 μM
# Procedure: NHEK were pre-incubated for 24 h with the test compounds. The medium was replaced with the NHEK culture medium containing the inflammatory inducers (PMA or Poly I:C) and incubated for another 24 hours. Positive and negative controls ran in parallel. At the endpoint the culture supernatants were quantified of secreted IL-8, PGE2 and TNF-α, by means of ELISA.
smiles,measurement,setting,value
"C[C@@H]1O[C@@H](Oc2cc(O)cc3c2C(=O)CC(c2ccc(O)cc2)O3)[C@H](O)[C@H](O)[C@H]1O (mixture of isomers) [NR1, Naringenin-5-O-α-L-rhamnoside]",% Glucose uptake (Rosiglitazone = 100%),HaCaT cells; 25 μM,87.7%
same,Mean (fluorescence),HaCaT cells; 25 μM,768005
same,Measure 1 (fluorescence),HaCaT cells; 25 μM,493970
same,Measure 2 (fluorescence),HaCaT cells; 25 μM,1160754
same,Measure 3 (fluorescence),HaCaT cells; 25 μM,649291
same,RFU specific,HaCaT cells; 25 μM,761691 RFU
same,% Glucose uptake (Rosiglitazone = 100%),HaCaT cells; 50 μM,29.6%
same,Mean (fluorescence),HaCaT cells; 50 μM,263881
same,Measure 1 (fluorescence),HaCaT cells; 50 μM,278134
same,Measure 2 (fluorescence),HaCaT cells; 50 μM,256310
same,Measure 3 (fluorescence),HaCaT cells; 50 μM,257198
same,RFU specific,HaCaT cells; 50 μM,257567 RFU
same,Mean VEGF,VEGF,92 pg/mL
same,VEGF % Control,VEGF,128%
same,VEGF,VEGF; single values,90 pg/mL and 94 pg/mL
same,% Activation (NF-κB; TNFα = 100%),NF-κB; 10 μM,114.0%
same,RLU 1,NF-κB; 10 μM,134540 RLU
same,RLU 2,NF-κB; 10 μM,126580 RLU
same,RLU 3,NF-κB; 10 μM,130240 RLU
same,RLU MEAN,NF-κB; 10 μM,130453 RLU
same,RLU specific,NF-κB; 10 μM,93190 RLU
same,% Activation (NF-κB; TNFα = 100%),NF-κB; 25 μM,136.5%
same,RLU 1,NF-κB; 25 μM,151080 RLU
same,RLU 2,NF-κB; 25 μM,151840 RLU
same,RLU 3,NF-κB; 25 μM,143870 RLU
same,RLU MEAN,NF-κB; 25 μM,148930 RLU
same,RLU specific,NF-κB; 25 μM,111667 RLU
same,Cytokine [pg/mL] TNFα Mean,TNF-α,516 pg/mL
same,TNFα % stim. control,TNF-α,92%
same,Cytokine [pg/mL] TNFα,TNF-α; single values,516 pg/mL
